The values below come from US20250325533A1, “TRYPTAMINE COMPOSITIONS FOR ENHANCING NEURITE OUTGROWTH” (TURTLE BEAR HOLDINGS, LLC, priority 2016, published 2025).

“Also recorded” adds a separate entry of the source.

Test [1] deals with anti-inflammatory cytokine IL-10. The test can be described thus: ELISA of IL-10 in 1321N1 cells. The settings on record: human 1321N1 brain cells. The test is classed as cell-based. The text has this:
(§1) See Ly et al., “Psychedelics Promote Structural and Functional Neural Plasticity,” Cell Rep.
A general note: ELISA stands for enzyme-linked immunosorbent assay.

For test [2], the system named is Rat Induced Pluripotent Stem Cell (iPSC) neurons / cortical neurons from rat embryo. The test can be described thus: Neurite outgrowth and length in cultured neurons, beta III tubulin immunostaining, High-Content Screening (Neurofit). The test is classed as cell-based. The settings on record: day 10. As to the method:
Experiments were conducted to evaluate the neurotrophic effects of several purified tryptamines, H. erinaceum extracts, and the tryptamines combined with selected extracts of H. erinaceum. The tryptamines, baeocystin, norbaeocystin, and norpsilocin, were evaluated at final concentrations of 0.3 μg/mL, 1 μg/mL, 3 μg/mL, and 10 μg/mL. The experiments analyzed the H. erinaceum growth medium (rice or rice and oat hull fiber), the days of cultivation, the extract solvent (water, ethanol, or ethyl acetate), and the final concentration of the extract (31.3 μg/mL, 62.5 μg/mL, 125 μg/mL or 250 μg/mL). Finally, combinations of the three tryptamines and representative H. erinaceum extracts were combined and evaluated.
Experiments were conducted by Neurofit Contract Research Organization in Illkirch-Graffenstaden, France.
The following protocol was performed for each independent culture. Six culture experiments were performed for each condition.
Results are expressed as mean (±Standard Deviation).

Test [3] has as its system PC12 cells (conditioned media from 1321N1 human astrocytoma cells). The test can be described thus: Neurite outgrowth of PC12 cells treated with conditioned media from 1321N1 cells. Type of test: cell-based, rat. To be noted: conditioned media from treated 1321N1 cells; n=3. The source says: 1321N1 human brain astrocytoma cells are known to excrete neurologically beneficial compounds when stimulated with neurotrophic compounds and fungal extracts including lion's mane (Mori et al., Biological and Pharmaceutical Bulletin, 9: 1727-1732 (2008)). While some fungi have well established mechanisms by which they benefit neurological health, little is known about the role of psilocybin analogs specifically. Generally following the protocol of Mori et al., 2008, 1321N1 human astrocytoma cells were treated with psilocybin analogs, and conditioned media was collected and applied to differentiated rat pheochromocytoma PC12 cells to determine the resulting impact on neurite outgrowth.

Test [4] concerns nerve growth factor (NGF) protein. The experiment in a line: ELISA of NGF protein in 1321N1 cells. The test is classed as cell-based. The settings on record: human 1321N1 cells; vs vehicle control; n=3; p<0.05.
Source text: Accordingly, preliminary research has started to reveal the mechanisms by which psilocybin analogs may confer neurotrophic benefits that facilitate neurite outgrowth.
as §1

Test [5] deals with hallucinogenic effects in humans. To be noted: human, cited from earlier work.
The test system of test [6] is inflammation in the lungs. The settings on record: in vivo; cited from earlier work.

For `CNCCc1c[nH]c2cccc(O)c12` [norpsilocin, 4-hydroxy-N-methyl-tryptamine], the “expression of IL-10” value in test [1] is reported as “induces the expression”. Further, the “neurite outgrowth compared with vehicle control and other treatments (in words)” value in test [2] (at the concentrations tested) is “did not perform better than vehicle control”. Further, the “Neurite length per neuron, % of control, Avg.” value came to 107.70% in test [2] (tryptamine 0.3 μg/mL), 101.13% in test [2] (tryptamine 1 μg/mL), 73.80% in test [2] (tryptamine 3 μg/mL) and 7.65% in test [2] (tryptamine 10 μg/mL). The “Neurites per neuron, % of control, Avg.” value in test [2] (tryptamine 0.3 μg/mL) is given as 83.77%; in test [2] (tryptamine 1 μg/mL), 87.18%; in test [2] (tryptamine 3 μg/mL), 79.36%; in test [2] (tryptamine 10 μg/mL), 27.71%. The “neurite outgrowth induced by conditioned media” value (“neurite outgrowth induced” for short) in test [3] is given as “induce neurite outgrowth”.

In the case of `NCCc1c[nH]c2cccc(OP(=O)(O)O)c12` [norbaeocystin, 4-phosphoryloxy-tryptamine], the “expression of NGF protein” value in test [4] is reported as “increased expression of NGF protein; also recorded: induces the expression; also recorded: induction of NGF protein”. The “neurite outgrowth induced” value in test [3] is on record as “induce neurite outgrowth”.

Consider `CNCCc1c[nH]c2cccc(OP(=O)(O)O)c12` [baeocystin, 4-phosphoryloxy-N-methyltryptamine], for which the hallucinogenic effect result in test [5] (4 mg consumed, anecdotal (Gartz 1991)) is on record as “gentle hallucinogenic experience”. The hallucinogenic effects entry in test [5] (oral consumption of 10 mg and 20 mg) was “did not produce any hallucinogenic effects”. Also, the “Neurite length per neuron, % of control, Avg.” value is recorded as 119.24% in test [2] (tryptamine 0.3 μg/mL), 112.34% in test [2] (tryptamine 1 μg/mL), 118.42% in test [2] (tryptamine 3 μg/mL) and 109.61% in test [2] (tryptamine 10 μg/mL). In addition, the “Neurites per neuron, % of control, Avg.” value in test [2] (tryptamine 0.3 μg/mL) was 94.46%; in test [2] (tryptamine 1 μg/mL) it was 93.66%; in test [2] (tryptamine 3 μg/mL), 97.18%; in test [2] (tryptamine 10 μg/mL) it was 96.87%. Moreover, in test [3], the “neurite outgrowth induced” value is given as “induce neurite outgrowth”.

As for `COc1cc(C[C@@H](C)N)c(OC)cc1I` [(R)-2,5-dimethoxy-4-iodoamphetamine], the “inflammation in the lungs” value in test [6] was “prevent and reverse inflammation”.
